In brackets after ≈: the same amount, converted by molar mass.
Columns and labels:
Assay type in all cases: physicochemical
[1] = TGA (thermo-gravimetric analysis)/thermal analysis
Experimental: Thermo-Gravimetric Analysis (TGA)
TA Instruments Q500: TGA data were collected on a TA Instruments Q500 TGA, equipped with a 16 position auto-sampler. Typically, 5-10 mg of each sample was loaded onto a pre-tared aluminium DSC pan and heated at 10 °C/min from ambient temperature to 350 °C. A nitrogen purge at 60 ml/min was maintained over the sample. The instrument control software was Advantage for Q Series and Thermal Advantage and the data were analysed using Universal Analysis or TRIOS.

[2] = Storage at 25 °C/97% RH and 40 °C/75% RH
Experimental: Chemical Purity Determination by High-Performance Liquid Chromatography (HPLC)
Purity analysis was performed on an Agilent HP1100/Infinity II 1260 series system equipped with a diode array detector and using OpenLAB software. The full method details are provided below:
Unless stated within the appropriate data tables, all HPLC purity data reported has been run using the HPLC Method No. 2.

[3] = Solubility in single solvents, Form 2 as starting material (Table D); conditions: 20-25 °C; for Solubility: starting material Form 2, XRPD Form 1
Experimental: Solubility of Form 1 was measured in several single solvents using Form 2 as starting material, respectively. […] Thus, MeOH, Acetone, MEK, EtOAc and IPAc were selected for further chemical stability evaluation before starting solubility test with anti-solvents.

[4] = Gravimetric vapour sorption (GVS)
Experimental: Gravimetric Vapour Sorption (GVS)
Sorption isotherms were obtained using a SMS DVS Intrinsic moisture sorption analyser, controlled by DVS Intrinsic Control software. The sample temperature was maintained at 25 °C by the instrument controls. The humidity was controlled by mixing streams of dry and wet nitrogen, with a total flow rate of 200 ml/min. The relative humidity was measured by a calibrated Rotronic probe (dynamic range of 1.0-100% RH), located near the sample. The weight change, (mass relaxation) of the sample as a function of % RH was constantly monitored by a microbalance (accuracy±0.005 mg).
Typically, 5-30 mg of sample was placed in a tared mesh stainless steel basket under ambient conditions. The sample was loaded and unloaded at 40% RH and 25 °C (typical room conditions). A moisture sorption isotherm was performed as outlined below (2 scans per complete cycle). The standard isotherm was performed at 25 °C at 10% RH intervals over a 0-90% RH range. Typically, a double cycle (4 scans) was carried out. Data analysis was carried out within Microsoft Excel using the DVS Analysis Suite.
The sample was recovered after completion of the isotherm and re-analysed by XRPD.

[5] = Solubility in aqueous and biorelevant media (Table A)
From the text: Form 1 was characterized using a wide range of techniques to investigate the solid form and chemical properties (FIGS. 1-6B).

[6] = Drying stability test (Table I); conditions: 50 °C under vacuum
[7] = Solubility of Form 1 in IPAc/Heptane system (Table E)
Experimental: Solubility of Form 1 was further measured in IPAc/Heptane system with different ratio at 0-50 °C.

With `CC(C)OC(=O)[C@@H](Cc1ncccn1)OC(=O)Nc1c2c(cc3c1CCC3)CCC2` [Form 1, propan-2-yl(2R)-2-{[(1,2,3,5,6,7-hexahydro-s-indacen-4-yl)carbamoyl]oxy}-3-(pyrimidin-2-yl) propanoate] the “Thermal stability by thermal analysis” value [1] was “thermally stable”, the “TGA weight loss before degradation” value ([1]; heated at 10 °C/min, nitrogen purge) was “no weight loss before degradation” and the “Storage: solid form” value ([2]; 25 °C/97% RH) was “Form 1”. For the same compound, the “Storage: solid form” value ([2]; 40 °C/75% RH) was “Form 1”, the Solubility ([3]; Acetone) was 167 mg/mL (≈ 408 mM) and the Solubility ([3]; EtOAc) was 98 mg/mL (≈ 239 mM). The Solubility in words ([3]; EtOH and IPA) was “moderate solubility”, the Solubility ([3]; EtOH) was 45 mg/mL (≈ 110 mM) and the Solubility ([3]; IPA) was 24 mg/mL (≈ 58.6 mM). For the same compound, the Solubility ([3]; IPAc) was 48 mg/mL (≈ 117 mM), the Solubility ([3]; MEK) was 175 mg/mL (≈ 427 mM) and the Solubility ([3]; MeOH) was 77 mg/mL (≈ 188 mM). The Solubility in words ([3]; MeOH, Acetone, MEK, EtOAc and IPAc) was “good solubility”, the Solubility in words ([3]; n-heptane and water) was “poor solubility” and the Solubility ([3]; n-heptane) was 3 mg/mL (≈ 7.33 mM). For the same compound, the GVS hygroscopicity ([4]; 25 °C) was “Non-hygroscopic”, the GVS hysteresis ([4]; 25 °C) was “no hysteresis” and the GVS water uptake ([4]; 25 °C, 0-90% RH) was <0.1% water uptake between 0-90% RH. The GVS water uptake ([4]; 25 °C, 40-90% RH) was under 0.1%, the “XRPD post GVS” value ([4]; form after GVS experiment) was “remained as Form 1” and the Solubility ([5]; fassif) was 0.026 mg/mL (≈ 0.0635 mM). The Solubility ([5]; fessif) was 0.014 mg/mL (≈ 0.0342 mM), the Solubility ([5]; pH = 1.2) was under 0.01 mg/mL and the Solubility ([5]; pH = 5) was under 0.01 mg/mL. It also gave a Solubility ([5]; pH = 6.5) of under 0.01 mg/mL, a Solubility ([5]; pH = 7.4) of under 0.01 mg/mL and a Solubility ([5]; pH = 8.5) of under 0.01 mg/mL. For the same compound, the Solubility ([5]; sgf) was 0.0047 mg/mL (≈ 0.0115 mM), the “Drying stability: XRPD” value ([6]; 0 h) was “Form 1” and the “Drying stability: purity” value ([6]; 0 h) was 99.0%. The “Drying stability: XRPD” value ([6]; 22 h) was “Form 1”, the “Drying stability: purity” value ([6]; 22 h) was 99.1% and the “Drying stability: XRPD” value ([6]; 70 h) was “Form 1”. For the same compound, the “Drying stability: purity” value ([6]; 70 h) was 99.1%, the “Drying stability in words” value ([6]; total 70 h) was “no degradation and form change” and the “Stability at elevated temperatures” value ([6]; total 70 h) was “chemically and physically stable at elevated temperatures”. It also gave a Solubility ([7]; IPAc/Heptane 1/0 (v/v), 30 °C) of 59.5 mg/mL (≈ 145 mM), a Solubility ([7]; IPAc/Heptane 1/0 (v/v), 40 °C) of 80.2 mg/mL (≈ 196 mM) and a Solubility ([7]; IPAc/Heptane 1/0 (v/v), 50 °C) of 170.6 mg/mL (≈ 417 mM). For the same compound, the Solubility ([7]; IPAc/Heptane 1/1 (v/v), 0-5 °C) was 6.4 mg/mL (≈ 15.6 mM), the Solubility ([7]; IPAc/Heptane 1/1 (v/v), 30 °C) was 12.1 mg/mL (≈ 29.5 mM) and the Solubility ([7]; IPAc/Heptane 1/1 (v/v), 50 °C) was 34.4 mg/mL (≈ 84 mM). It also gave a Solubility ([7]; IPAc/Heptane 1/2 (v/v), 0-5 °C) of 3.4 mg/mL (≈ 8.3 mM), a Solubility ([7]; IPAc/Heptane 1/2 (v/v), 30 °C) of 4.8 mg/mL (≈ 11.7 mM) and a Solubility ([7]; IPAc/Heptane 1/2 (v/v), 50 °C) of 18.0 mg/mL (≈ 44 mM). It also gave a Solubility ([7]; IPAc/Heptane 1/3 (v/v), 0-5 °C) of 1.7 mg/mL (≈ 4.15 mM), a Solubility ([7]; IPAc/Heptane 1/3 (v/v), 30 °C) of 2.9 mg/mL (≈ 7.08 mM) and a Solubility ([7]; IPAc/Heptane 1/3 (v/v), 50 °C) of 8.0 mg/mL (≈ 19.5 mM). The Solubility ([7]; IPAc/Heptane 2/1 (v/v), 30 °C) was 27.7 mg/mL (≈ 67.6 mM), the Solubility ([7]; IPAc/Heptane 2/1 (v/v), 50 °C) was 53.4 mg/mL (≈ 130 mM) and the Solubility ([7]; IPAc/Heptane 3/1 (v/v), 50 °C) was 65.2 mg/mL (≈ 159 mM). The Solubility ([7]; IPAc/Heptane 4/1 (v/v), 50 °C) was 75.2 mg/mL (≈ 184 mM), the Solubility ([7]; IPAc/Heptane 9/1 (v/v), 50 °C) was 120.0 mg/mL (≈ 293 mM) and the “XRPD form in solubility test” value ([7]; IPAc/Heptane, 0-50 °C, starting material Form 1) was “Form 1”.

Source: patent US20260345601A1, “FORMS OF CARBAMATE DERIVATIVES AND RELATED USES” (NodThera Limited, priority 2022, published 2026)
